Data set [1] in a line: Metabolism study of Compound 2 in naive rats (plasma, HPLC). It is filed as in vivo, male rats. The procedure:
The in vivo metabolic profile of Compound 2 was determined after intravenous administration to male rats. Post mortem blood was obtained at 60 minutes post injection and centrifuged to separate plasma.
Analysis was carried out by HPLC with prior extraction of Compound 2 from plasma using solid phase extraction (HLB cartridges; Waters). Briefly, cartridges were conditioned with 5 ml, acetonitrile, followed by 2×5 mL water. Plasma was loaded onto the cartridge and then washed with water (2% acetonitrile). Compound 2 was eluted from the cartridge with 7.5 mL water (0.1% TFA) with acetonitrile (0.1% TFA) as a 50:50 ratio.
The extract was evaporated to dryness and reconstituted in 2 mL starting mobile phase (4% acetonitrile (0.1% TFA) and water (0.1% TFA).
0.5 mL of the reconstituted extract anlaysed by HPLC using the same analytical conditions as mentioned above in Example 3 for Compound 2.

Data set [2] can be described thus: Biodistribution of 99mTc-Compound 2 in naive rats. Further details: species or system Male Sprague-Dawley rats. To be noted: rat. The procedure:
Male Sprague-Dawley rats (231±10 g) were group housed in batches of four, with ad libitum access to food and water. […] At various times post injection (2, 30, 60 and 120 minutes) animals were euthanised (n=3 per timepoint), dissected.
Data above are presented as % injected dose (mean±SD; n=3 animals per timepoint).

Data set [3] deals with T1, recombinant human FAP (Homo sapiens, UniProt Q12884).
T1 construct: purchased BPS Bioscience
T1 sequence (Q12884 1-760): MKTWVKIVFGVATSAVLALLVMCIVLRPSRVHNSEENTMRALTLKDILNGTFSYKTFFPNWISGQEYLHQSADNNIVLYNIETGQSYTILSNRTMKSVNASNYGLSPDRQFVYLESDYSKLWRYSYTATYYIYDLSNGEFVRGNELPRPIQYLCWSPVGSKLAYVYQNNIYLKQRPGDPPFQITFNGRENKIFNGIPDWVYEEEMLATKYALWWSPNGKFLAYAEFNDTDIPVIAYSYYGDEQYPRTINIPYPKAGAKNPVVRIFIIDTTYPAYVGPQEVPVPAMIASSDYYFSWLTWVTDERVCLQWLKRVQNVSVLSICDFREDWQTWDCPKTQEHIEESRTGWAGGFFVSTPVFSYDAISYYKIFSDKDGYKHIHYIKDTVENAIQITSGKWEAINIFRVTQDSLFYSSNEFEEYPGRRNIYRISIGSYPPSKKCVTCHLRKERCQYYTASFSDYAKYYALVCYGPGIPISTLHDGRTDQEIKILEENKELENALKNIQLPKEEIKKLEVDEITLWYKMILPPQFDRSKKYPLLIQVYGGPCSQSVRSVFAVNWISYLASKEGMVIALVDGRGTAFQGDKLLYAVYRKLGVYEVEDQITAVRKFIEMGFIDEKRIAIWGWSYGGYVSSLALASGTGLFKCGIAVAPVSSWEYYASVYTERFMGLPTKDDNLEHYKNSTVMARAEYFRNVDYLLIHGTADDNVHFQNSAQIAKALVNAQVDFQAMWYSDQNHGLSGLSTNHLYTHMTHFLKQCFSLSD
The data set can be described thus: FAP assay kit (BPS Bioscience), inhibition of enzymatic activity, Gly-Pro-AMC fluorogenic substrate. The conditions noted are these: for IC50: recombinant human FAP, 30 min, 22° C. It is filed as biochemical. On the procedure: (§1) The assay uses the fluorogenic substrate Gly-Pro-Aminomethylcoumarin (AMC) to measure either FAP or DPP-IV activity.
(§2) The enzyme activities were assayed in a total volume of 100 uL for 10 min (DPP-IV) and 30 min (FAP) at 22° C. The inhibitors were dissolved in DMSO. IC50 values were computed using GraphPad Prism 4.

Data set [4] has as its target T2, recombinant human DPP-IV (Homo sapiens, UniProt P27487).
T2 construct: purchased BPS Bioscience
The data set can be described thus: DPP-IV assay kit (BPS Bioscience), inhibition of enzymatic activity, Gly-Pro-AMC fluorogenic substrate. It is filed as biochemical. To be noted: 10 min, 22° C. On the procedure:
as §1, §2

Counter-ions that a name gives are not always drawn. Some results are limits rather than exact numbers.

The text below walks through data of patent publication US20150320892A1, “IMAGING FIBROSIS” (GE Healthcare Limited, priority 2012, published 2015).

One may read the IC50 as the midpoint of a concentration-inhibition curve.

T2 sequence (P27487 whole entry): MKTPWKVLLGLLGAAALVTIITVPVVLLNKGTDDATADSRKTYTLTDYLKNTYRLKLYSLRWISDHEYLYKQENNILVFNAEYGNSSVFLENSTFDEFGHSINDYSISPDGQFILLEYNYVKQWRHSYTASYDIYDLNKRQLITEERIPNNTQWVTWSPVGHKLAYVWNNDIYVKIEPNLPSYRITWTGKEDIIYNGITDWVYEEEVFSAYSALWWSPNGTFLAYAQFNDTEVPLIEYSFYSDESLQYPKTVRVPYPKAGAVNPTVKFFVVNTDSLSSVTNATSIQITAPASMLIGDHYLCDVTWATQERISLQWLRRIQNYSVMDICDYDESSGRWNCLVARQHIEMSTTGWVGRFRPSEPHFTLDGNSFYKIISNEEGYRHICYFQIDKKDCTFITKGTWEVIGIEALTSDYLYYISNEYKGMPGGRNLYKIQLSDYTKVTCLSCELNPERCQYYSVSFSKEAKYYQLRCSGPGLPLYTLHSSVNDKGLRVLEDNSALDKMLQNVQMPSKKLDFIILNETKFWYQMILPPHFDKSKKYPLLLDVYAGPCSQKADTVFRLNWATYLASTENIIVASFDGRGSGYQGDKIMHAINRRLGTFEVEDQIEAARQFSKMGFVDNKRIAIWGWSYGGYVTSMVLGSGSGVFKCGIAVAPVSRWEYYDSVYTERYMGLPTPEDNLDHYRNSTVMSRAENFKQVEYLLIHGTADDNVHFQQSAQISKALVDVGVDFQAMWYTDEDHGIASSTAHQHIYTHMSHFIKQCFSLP

On to `NCCNCC(CNCCN)CC(=O)NCCCCCC(=O)NCC(=O)N1CCC[C@H]1B(O)O` [Compound 2, (R) (1-(2-(6-(4-((2-aminoethyl)amino)-3-(((2-aminoethyl)amino)methyl)butanamido)hexanamido)acetyl)pyrrolidin-2-yl)boronic acid], for which the “Compound 2 still present in the plasma sample” value in data set [1] (male rats, intravenous, plasma 60 minutes after injection) is given as “Approximately 80%”. Moreover, the “in vivo metabolic profile (in words)” value in data set [1] (rat, in vivo) is on record as “good in vivo metabolic profile”. Moreover, in data set [2], the “biodistribution for in vivo imaging purposes (in words)” value was “good biodistribution”.

Consider `N#Cc1ccc(NCCNCC(=O)N2CCCC2C#N)nc1` (centres unmarked) [DPP-IV reference, NVP DPP 728 hydrochloride, reference compound], for which the half-maximal inhibitory concentration (IC50) in data set [3] is more than 100 µM.

On to `O=C(NCC(=O)N1CCC[C@H]1B(O)O)c1cccc2ccccc12` [FAP reference, (R)-(1-(2-(1-naphthamido)acetyl)pyrrolidin-2-yl)boronic acid, reference compound], for which the IC50 in data set [4] is more than 50 µM.

On to “(R)-(1-(2-(6-(4-((2-aminoethyl)amino)-3-(((2-aminoethyl)amino)methyl)butanamido)hexanamido)acetyl)pyrrolidin-2-yl)boronic acid, dioxorhenium(V)salt [Compound 1]”, for which the IC50 in data set [4] was more than 50 µM; in data set [3], 0.009 µM. The “affinity for FAP (in words)” value in data set [3] (in vitro assay) is “high and selective affinity for FAP”.
